Reference: ChEMBL document CHEMBL5252555, “Antimicrobial Polyketides from the Marine-Derived Fungus Spiromastix sp. SCSIO F190” (J Nat Prod, 2023)
≈ marks a conversion by molar mass, not a printed value. Calls of active or inactive are those of the source. The calls are words filed in the database; no cut-off is given here.

Experiments:
Staphylococcus aureus [1] = assay: Antibacterial activity against Staphylococcus aureus ATCC 29213 assessed as inhibition of bacterial growth incubated for 18 hrs by broth microdilution method; assay type: functional
Staphylococcus aureus [2] = assay: Antibacterial activity against Staphylococcus aureus 16339 assessed as inhibition of bacterial growth incubated for 18 hrs by broth microdilution method; assay type: functional
Staphylococcus aureus [3] = assay: Antibacterial activity against Staphylococcus aureus 1862 assessed as inhibition of bacterial growth incubated for 18 hrs by broth microdilution method; assay type: functional
Staphylococcus aureus [4] = assay: Antibacterial activity against Staphylococcus aureus 3090 assessed as inhibition of bacterial growth incubated for 18 hrs by broth microdilution method; assay type: functional
Staphylococcus aureus [5] = assay: Antibacterial activity against Staphylococcus aureus 991 assessed as inhibition of bacterial growth incubated for 18 hrs by broth microdilution method; assay type: functional
Staphylococcus aureus [6] = assay: Antibacterial activity against Staphylococcus aureus 669 assessed as inhibition of bacterial growth incubated for 18 hrs by broth microdilution method; assay type: functional
Staphylococcus aureus [7] = assay: Antibacterial activity against Staphylococcus aureus 745324 assessed as inhibition of bacterial growth incubated for 18 hrs by broth microdilution method; assay type: functional
Staphylococcus aureus [8] = assay: Antibacterial activity against Staphylococcus aureus 16162 assessed as inhibition of bacterial growth incubated for 18 hrs by broth microdilution method; assay type: functional
Enterococcus faecalis [9] = assay: Antibacterial activity against Enterococcus faecalis ATCC 29212 assessed as inhibition of bacterial growth incubated for 18 hrs by broth microdilution method; assay type: functional
Staphylococcus aureus [10] = assay: Antibacterial activity against Staphylococcus aureus GDE4P037P assessed as inhibition of bacterial growth incubated for 18 hrs by broth microdilution method; assay type: functional
Enterococcus faecalis [11] = assay: Antibacterial activity against Enterococcus faecalis 36950 assessed as inhibition of bacterial growth incubated for 18 hrs by broth microdilution method; assay type: functional
Micrococcus luteus = assay: Antibacterial activity against Micrococcus luteus ML01 assessed as inhibition of bacterial growth incubated for 18 hrs by broth microdilution method; assay type: functional
Staphylococcus simulans = assay: Antibacterial activity against Staphylococcus simulans AKA1 assessed as inhibition of bacterial growth incubated for 18 hrs by broth microdilution method; assay type: functional
Enterococcus faecium [12] = assay: Antibacterial activity against Enterococcus faecium 36235 assessed as inhibition of bacterial growth incubated for 18 hrs by broth microdilution method; assay type: functional
Bacillus subtilis = assay: Antibacterial activity against Bacillus subtilis BS01 assessed as inhibition of bacterial growth incubated for 18 hrs by broth microdilution method; assay type: functional
Enterococcus faecium [13] = assay: Antibacterial activity against Enterococcus faecium 35682 assessed as inhibition of bacterial growth incubated for 18 hrs by broth microdilution method; assay type: functional
Enterococcus gallinarum = assay: Antibacterial activity against Enterococcus gallinarum 5F52C assessed as inhibition of bacterial growth incubated for 18 hrs by broth microdilution method; assay type: functional
Enterococcus faecium [14] = assay: Antibacterial activity against Enterococcus faecium 36711 assessed as inhibition of bacterial growth incubated for 18 hrs by broth microdilution method; assay type: functional
Staphylococcus aureus [15] = assay: Antibacterial activity against Staphylococcus aureus 718306 assessed as inhibition of bacterial growth incubated for 18 hrs by broth microdilution method; assay type: functional
Staphylococcus aureus [16] = assay: Antibacterial activity against Staphylococcus aureus 6917 assessed as inhibition of bacterial growth incubated for 18 hrs by broth microdilution method; assay type: functional
Staphylococcus aureus [17] = assay: Antibacterial activity against methicillin-resistant Staphylococcus aureus assessed as inhibition of bacterial growth incubated for 18 hrs by broth microdilution method; assay type: functional
HepG2 = assay: Cytotoxicity against human HepG2 cells incubated for 48 hrs by CCK-8 assay; assay type: functional, cell-based
HeLa = assay: Cytotoxicity against human HeLa cells incubated for 48 hrs by CCK-8 assay; assay type: functional, cell-based
[18] = Cytotoxicity against human LX2 cells incubated for 48 hrs by CCK-8 assay; assay type: toxicity, cell-based; conditions: lx-2, 48 h
RBE = assay: Cytotoxicity against human RBE cells incubated for 48 hrs by CCK-8 assay; assay type: functional, cell-based
HCT-116 = assay: Cytotoxicity against human HCT-116 cells incubated for 48 hrs by CCK-8 assay; assay type: functional, cell-based
MCF7 = assay: Cytotoxicity against human MCF7 cells incubated for 48 hrs by CCK-8 assay; assay type: functional, cell-based
A549 = assay: Cytotoxicity against human A549 cells incubated for 48 hrs by CCK-8 assay; assay type: functional, cell-based
HUVEC = assay: Cytotoxicity against HUVEC cells incubated for 48 hrs by CCK-8 assay; assay type: toxicity, cell-based; conditions: human

SMILES	MIC (Staphylococcus aureus [1]) [µg/mL]	MIC (Staphylococcus aureus [2]) [µg/mL]	MIC (Staphylococcus aureus [3]) [µg/mL]	MIC (Staphylococcus aureus [4]) [µg/mL]	MIC (Staphylococcus aureus [5]) [µg/mL]	MIC (Staphylococcus aureus [6]) [µg/mL]	MIC (Staphylococcus aureus [7]) [µg/mL]	MIC (Staphylococcus aureus [8]) [µg/mL]	MIC (Enterococcus faecalis [9]) [µg/mL]	MIC (Staphylococcus aureus [10]) [µg/mL]	MIC (Micrococcus luteus) [µg/mL]	MIC (Staphylococcus simulans) [µg/mL]	MIC (Enterococcus faecium [12]) [µg/mL]	MIC (Bacillus subtilis) [µg/mL]	MIC (Enterococcus faecium [13]) [µg/mL]	MIC (Enterococcus gallinarum) [µg/mL]	MIC (Enterococcus faecium [14]) [µg/mL]	MIC (Staphylococcus aureus [15]) [µg/mL]	MIC (Staphylococcus aureus [16]) [µg/mL]	MIC (Staphylococcus aureus [17]) [µg/mL]	further results
CCCc1c(Cl)c(OC)c(Cl)c2c1Oc1c(Cl)c(O)c(Cl)c(CCC)c1C(=O)O2	4 (≈ 8.33 µM)	1 (≈ 2.08 µM)	1 (≈ 2.08 µM)	1 (≈ 2.08 µM)	1 (≈ 2.08 µM)	1 (≈ 2.08 µM)	2 (≈ 4.17 µM)	1 (≈ 2.08 µM)	1 (≈ 2.08 µM)	2 (≈ 4.17 µM)	0.5 (≈ 1.04 µM)	0.25 (≈ 0.521 µM)	2 (≈ 4.17 µM)	0.125 (≈ 0.26 µM)	2 (≈ 4.17 µM)	1 (≈ 2.08 µM)	2 (≈ 4.17 µM)	2 (≈ 4.17 µM)	2 (≈ 4.17 µM)	1 (≈ 2.08 µM)	MIC (Enterococcus faecalis [11]): 0.25 µg/mL (≈ 0.521 µM)
CCCc1c(Cl)c(OC)cc2c1Oc1c(Cl)c(O)c(Cl)c(CCC)c1C(=O)O2	4 (≈ 8.97 µM)	2 (≈ 4.49 µM)	2 (≈ 4.49 µM)	2 (≈ 4.49 µM)	2 (≈ 4.49 µM)	4 (≈ 8.97 µM)	4 (≈ 8.97 µM)	2 (≈ 4.49 µM)	2 (≈ 4.49 µM)	4 (≈ 8.97 µM)	1 (≈ 2.24 µM)	0.5 (≈ 1.12 µM)	4 (≈ 8.97 µM)	0.5 (≈ 1.12 µM)	8 (≈ 17.9 µM)	2 (≈ 4.49 µM)	2 (≈ 4.49 µM)	2 (≈ 4.49 µM)	4 (≈ 8.97 µM)	2 (≈ 4.49 µM)	MIC (Enterococcus faecalis [11]): 0.5 µg/mL (≈ 1.12 µM)
CCCCC/C=C1/C(=O)C(CC=C(C)C)=C(C)C1O (configuration not stated)	> 128	> 128	> 128	> 128	> 128	> 128	> 128	> 128	> 128	> 128	> 128	> 128	> 128	> 128	> 128	> 128	> 128	> 128	> 128	> 128	Activity (HepG2): inactive; Activity (HeLa): inactive; MIC (Enterococcus faecalis [11]): > 128 µg/mL; Activity [18]: Non-Toxic; Activity (RBE): inactive; Activity (HCT-116): inactive; Activity (MCF7): inactive; Activity (A549): inactive; Activity (HUVEC): Non-Toxic
CCCc1c(Cl)c(OC)c(Cl)c(Oc2c(Cl)c(O)c(Cl)c3c2C(=O)O[C@H](C)C3)c1OC	4 (≈ 7.84 µM)	4 (≈ 7.84 µM)	4 (≈ 7.84 µM)	4 (≈ 7.84 µM)	4 (≈ 7.84 µM)	4 (≈ 7.84 µM)	4 (≈ 7.84 µM)	4 (≈ 7.84 µM)	8 (≈ 15.7 µM)	8 (≈ 15.7 µM)	2 (≈ 3.92 µM)	4 (≈ 7.84 µM)	16 (≈ 31.4 µM)	2 (≈ 3.92 µM)	32 (≈ 62.7 µM)	4 (≈ 7.84 µM)	8 (≈ 15.7 µM)	8 (≈ 15.7 µM)	8 (≈ 15.7 µM)	4 (≈ 7.84 µM)	Activity (HepG2): inactive; Activity (HeLa): inactive; MIC (Enterococcus faecalis [11]): 4 µg/mL (≈ 7.84 µM); Activity [18]: Non-Toxic; Activity (RBE): inactive; Activity (HCT-116): inactive; Activity (MCF7): inactive; Activity (A549): inactive; Activity (HUVEC): Non-Toxic
CC1(C)S[C@@H]2[C@H](NC(=O)[C@H](N)c3ccccc3)C(=O)N2[C@H]1C(=O)O [AMPICILLIN]	1 (≈ 2.86 µM)	64 (≈ 183 µM)	4 (≈ 11.4 µM)		4 (≈ 11.4 µM)	8 (≈ 22.9 µM)	4 (≈ 11.4 µM)		1 (≈ 2.86 µM)		0.13 (≈ 0.372 µM)	> 64	> 64	0.125 (≈ 0.358 µM)	> 64	8 (≈ 22.9 µM)	> 64	> 64	64 (≈ 183 µM)	32 (≈ 91.6 µM)	
